One compound from PMC10794144, “A novel antibiotic class targeting the lipopolysaccharide transporter” (Nature, 2024) can be followed below.

The test system of series [1] is A. baumannii. The experiment in a line: Bacterial phenotypic fingerprint profiling. It is filed as cell-based, Acinetobacter baumannii. As to conditions: random forest model. The protocol: Sample preparation and analysis was conducted as previously described[26] for A. baumannii, with the generated and analysed dataset consisting of three independent experiments, n = 3, as the only modification to the protocol.
For the random forest analysis data proximity analysis from 4x and 8x LOED are pooled and the number of datapoints are reduced by down sampling to be equal for all reference conditions the maximal projection of the analysis. b, In the right panel an out-of-bag validation of the random forest classification model is indicated for the reference compounds. […] The degree of frequency of matching prediction correspond to the length of the individual bar segment, where a longer segment represents a higher similarity. […] Source Data

Series [2] in a line: Five-day repeat dose tolerability study. It is filed as in vivo, rat. As to conditions: for Clinical observations: male Wistar rats, n = 4; for Clinical chemistry / Coagulation / Haematology: 5 days. The protocol: Assessment of tolerability was based on mortality, in-life observations, body weight, food consumption and clinical pathology during the in-life phase. Moreover, gross pathology and histopathology were performed at unscheduled or scheduled euthanasia on day 6.

Series [3] deals with K. pneumoniae. The experiment in a line: MIC versus efflux impaired strains. It is filed as cell-based, Klebsiella pneumoniae. The protocol:
(§1) MIC determinations were performed using the broth microdilution method and in line with CLSI guidelines M07 and M100 (refs. [37],[38]). Bacterial inocula were prepared by diluting a 0.5 McFarland suspension in CAMHB or lysogeny broth (LB) specifically for A. baylyi isolates. […] MIC values of all of the tested antibiotics were read as the lowest compound concentration inhibiting bacterial growth by naked eye or beyond which the OD600 ceased to decrease.

Series [4] relates to A. baumannii. The experiment in a line: MIC, broth microdilution in CAMHB supplemented with human serum, read at 100% growth inhibition. It is filed as cell-based, Acinetobacter baumannii. As to conditions: Acinetobacter baumannii, ACC00535; CAMHB + 20% HS; read-out: MIC. The protocol: as §1
Background: In broth dilution the organism is exposed to a series of concentrations in liquid medium.

The structures appear in SMILES notation. Like-named read-outs stand apart in the source and are kept apart here.

Usually MTD stands for the largest dose that counted as tolerated. The low end stands for a narrow tolerated range, the high end for a wide tolerated range. As a reminder, the MIC is the lowest concentration found to suppress growth. As to `CN1C(=O)[C@H](CCCCN)NC(=O)[C@H](CCCN)NCc2cccnc2Sc2c(Cl)ccc(Cl)c2CNC(=O)[C@@H]1Cc1c[nH]c2ccccc12` [RO7075573], in series [1], the “Similarity towards RO7202110” value is reported as more than 70%. Besides, the Clinical observations result in series [2] (0.6 mg/kg slow IV once daily for 5 days) is “Slightly discolored tail after dosing”; in series [2] (6 mg/kg slow IV once daily for 5 days), “Slightly discolored tail after dosing, red extremities on D2 after dosing, prone posture, rolling gait, hypoactivity, laboured respiration, reduced food consumption – euthanized for humane reasons D2”. In addition, the Clinical chemistry entry is “No relevant changes” in series [2] (rats, 0.6 mg/kg IV); “Decreased HDL, triglyceride, cholesterol. Increased GLDH, AST and ALAT, CK, BUN, creatine, phosphorus, haptoglobin” in series [2] (rats, 6 mg/kg IV). Besides, the Coagulation entry in series [2] (rats, 0.6 mg/kg IV) was “No change”; in series [2] (rats, 6 mg/kg IV), “Decreased prothrombin time and increased aPTT”. Further, the Haematology entry in series [2] (rats, 0.6 mg/kg IV) is “No change”; in series [2] (rats, 6 mg/kg IV) it was “Decrease in haemoglobin and haematocrit, increase in neutrophils”. For the same compound, the “Decrease in lipid parameters (cholesterol, triglycerides, HDL)” value in series [2] (rats, after intravenous administration) is more than 40%. This compound displayed an MTD in series [2] (rats, slow IV once daily for 5 days) of 0.6 mg/kg. Further, the MIC in series [3] (K. pneumoniae 1161486a, efflux impaired, Δ acrAB) is more than 64 µg/mL; in series [3] (Klebsiella pneumoniae, K. pneumoniae 1161486, WT, read-out: MIC) it was more than 64 µg/mL; in series [4] it was 0.12 µg/mL.
